# Experimental data: paper PMC11023993, “Piperine, quercetin, and curcumin identified as promising natural products for topical treatment of cutaneous leishmaniasis” (Parasitology Research, 2024)
# Read-outs that look alike come from different tables or passages of the source.
# Key:
# [1] = test system: intracellular amastigotes of L. braziliensis; assay: In vitro leishmanicidal activity against intracellular amastigotes in infected U-937 macrophages (flow cytometry); assay type: cell-based, Leishmania braziliensis; details: for SI (Selectivity Index = LC50/EC50): LC50 U-937 / EC50 L. braziliensis amastigotes; for EC50: Leishmania braziliensis; for Leishmanicidal activity: class by EC50 on intracellular amastigotes of L. braziliensis
# Experimental: Infective L. braziliensis (MHOM/CO/88/UA301-eGFP) (Pulido et al. [2012]) were cultured in Novy-MacNeal-Nicolle (NNN) biphasic medium at 26 °C for 3 passages maximum. U-937 cells, prepared as described in the previous section, were adjusted to approximately 3 × 10^5 cells per mL of supplemented RPMI 1640 medium containing […] of PMA to induce cell adherence. One mL was dispensed into each well of a 24-well plate and platters were incubated at 37 °C in % CO2, 95% humidity atmosphere for 72 h. Then, adherent cells were infected with fluorescent promastigotes of L. braziliensis in a 15:1 parasite to cell ratio. Plates were incubated again at 34 °C and % CO2, 95% humidity atmosphere. After 24 h, non-phagocytosed parasites were washed by pipetting phosphate buffered solution (PBS) in the plate at room temperature and 500 µL of fresh complete RPMI 1640 medium was added. Then, 500 µL of each serial dilution of QUE, PIP, CUR, and amphotericin B was added to each well and plates were incubated at 34 °C with % CO2, 95% humidity atmosphere. The EC50, the median effective concentration to induce […] killing of the intracellular amastigotes in infected cells, was measured by Flow cytometry at 488 nm of excitation and 525 nm of emission. After 48 h of incubation, cells were harvested with cold dissociation buffer (1x PBS with 2% EDTA) and the harvested cells were washed with buffer (1 × PBS with 2% FBS), and results were analyzed by FlowJo 10. The EC50 was determined with a non-lineal regression using Prism GraphPad 10.
# (§1) The LC50 and the EC50 were calculated by Probit analysis using GraphPad Prism 10 (San Diego, CA, USA). Both cytotoxicity and leishmanicidal activity were defined by ranges of values of LC50 and EC50 in terms of high, moderate, or low as follows: high cytotoxicity for LC50 values < 100 µM, moderate cytotoxicity for LC50 values > 100 µM but < 200 µM, and low cytotoxicity for LC50 values > 200 µM. […] In addition, the cytotoxicity in U937 macrophages was correlated with the leishmanicidal activity by calculating the Selectivity Index (SI), using the equation: SI = LC50/EC50 (Indrayanto et al. [2021]).
# [2] = MTT cytotoxicity assay in uninfected U-937 macrophages; details: human
# Experimental: (§2) U-937 (CRL-1593.2™) macrophages (ATCC, Manassas, VA, USA) were cultured in RPMI-1640 medium supplemented with 10% of FBS and incubated at 37 °C in 5% CO2, 95% humidity atmosphere. U-937 cells in the exponential growth phase were recovered, and washed by centrifugation at 1800 rpm for 10 min at room temperature; the pellet was then resuspended in supplemented RPMI 1640 medium and counted in a Neubauer chamber. The number was adjusted to 1 × 10^6 cells per mL and 100 µL was dispensed into each well of a 96-well plate. Then, another 100 µL of each serial dilution of QUE, PIP, CUR, doxorubicin, and amphotericin B was added to each well by triplicate and plates were incubated at 37 °C 5% CO2, 95% humidity atmosphere for 48 h.
# (§3) The MTT solution is then added to the treated cells, where the yellow MTT is reduced to purple formazan by a variety of mitochondrial and cytosolic enzymes that are operational in viable cells. After 3 h of incubation with MTT, the formazan precipitates. Consequently, the growing medium was removed, the formazan was dissolved in DMSO, and the absorbance of the solution was measured at 570 nm using a microplate reader spectrophotometer (Varioskan Flash, Thermo Fisher Scientific).
# (§4) Cells exposed to the standard cytotoxic drug doxorubicin were used as an internal control for toxicity (positive control) while cells incubated in the absence of any compound or drug were used as a control for viability (negative control). A solution of 0.5% DMSO was used as a blank solution. Non-specific absorbance was corrected by subtracting absorbance (OD) of the blank. Determinations were done by triplicate in at least two independent experiments.
# (§5) The OD of viable cells that remained after treatment was compared to the OD of control cells that were not exposed to the drug. The LC50 (median lethal concentration) values and their statistical errors were calculated based on triplicates of the measurement in the independent assays. The LC50 values were determined by non-linear regression using Prism GraphPad 10.
# as §1
# L. braziliensis = test system: L. braziliensis
# From the text: Golden hamsters (Mesocricetus auratus) were purchased from Charles River Laboratories (Wilmington MA, USA) and bred under specific pathogen-free conditions at the animal facility unit of the Universidad de Antioquia in Medellín, Colombia. Six- to eight-week-old, male, and female hamsters were used for the experiments. Animal experimentation protocols including handling of the animals, sample collection, and euthanasia were done in compliance of the Center for Diseases Control and Prevention guidelines for Safe Work Practices in Human and Animal Medical Diagnostic Laboratories and ARRIVE guidelines (Percie du Sert et al. [2020b]; Khairani et al. [2022]) and approved by the Institutional Ethical Committee for animal experimentation (Act No. 152 of June 01, 2023) (Percie du Sert et al. [2020a]; Khairani et al. [2022]).
# Hamsters were anesthetized with ketamine (80 mg/kg, i.p.) and xylazine (15 mg/Kg) before infection and then, ∼1 × 10^8 promastigotes in stationary phase (6 days-old growth) were inoculated into the dorsum dermis (Robledo et al. [2012]). When hamsters developed ulcers larger than 12.5 mm^2, hamsters were randomly distributed into 4 groups (n = 6, each): (1) group treated with QUE (1 mg/day), (2) group treated with PIP (2.5 mg/day), (3) group treated with CUR (1.5 mg/day), (4) group treated with meglumine antimoniate (treatment control group, 200 µg/mL, intralesional). No vehicle control group was included in the present study because castor oil additive is a nonionic surfactant commonly used as an excipient in pharmaceutical formulations, particularly in solubilizing poorly water-soluble drugs. It is widely used as an ingredient in cosmetics for its conditioning properties, based on occlusive action, reducing water loss, and having a nourishing effect on the skin, hair, and nails (Marwat et al. [2017]; Khairani et al. [2022]).
# Hamsters were treated daily with 40 µL of the corresponding formulation for 2 weeks, applying it directly over the lesion, while hamsters treated with meglumine antimoniate received treatment three times per week for 4 weeks. Lesion area was measured every week for 90 days with an electronic digital caliper. The body weight gain or loss was supervised every 2 weeks during the study. At the end of the study, hamsters were euthanized with an i.p. injection of ketamine (600 mg/kg) and xylazine (30 mg/kg). The experiments were carried out under normal laboratory lighting conditions. After necropsy, biopsies from healed and unhealed ulcers were removed and fixed in 10% buffered formalin, processed, and stained with hematoxylin–eosin (H-E) stain for histopathology analysis. The changes were analyzed under a standard optical microscope.
# [3] = test system: L. braziliensis-induced cutaneous leishmaniasis ulcers; assay: Histopathological analysis (H-E) of healed ulcers from treated hamsters; assay type: in vivo, golden hamsters (Mesocricetus auratus); design: key to Dermis: oedema (grade) / Dermis: granulomatous inflammation (grade) / Epidermis: orthokeratotic hyperkeratosis (grade) / Epidermis: spongiosis (grade) / Epidermis: ulcer (grade) / Dermis: neovascularization (grade) / Dermis: fibroplasia (grade) / Dermis: leukocytic infiltrate (grade): 0, absent; 1, mild; 2, mild to moderate; 3, moderate; 4, moderate to severe; 5, severe; details: healed ulcer after topical treatment
# Experimental: The changes were analyzed under a standard optical microscope.
# [4] = test system: L. amazonensis amastigotes; design: method as in Ferreira et al. [2011]; details: ref Ferreira et al. [2011], read-out: EC50 for the amastigote stage; cited from earlier work
# macrophages = test system: macrophages; design: method as in Ferreira et al. [2011]; details: ref Ferreira et al. [2011]; cited from earlier work
# U-937 cells = assay: MTT cytotoxicity assay in uninfected U-937 macrophages; details: class by LC50 in U-937 macrophages
# Experimental: as §2, §3, §4, §5, §1
# [5] = intracellular amastigotes of L. braziliensis in U-937 macrophages, 48 h, read-out: EC50 (Median Effective Concentration)
# [6] = topical in castor oil daily for 15 days, QUE 1 mg/day, CUR 1.5 mg/day, PIP 2.5 mg/day, n = 6, followed 90 days
# [7] = intralesional 200 µg/mL three times per week for 4 weeks, n = 6
# [8] = intralesional 200 µg/mL, individual hamster
Molecule,SI (Selectivity Index = LC50/EC50) [1],"EC50 [1, 5]",Leishmanicidal activity [1],CC50 at 48 h [2],therapeutic response (hamsters cured) (L. braziliensis; [6]),Dermis: fibroplasia (grade) [3],Dermis: granulomatous inflammation (grade) [3],Dermis: leukocytic infiltrate (grade) [3],Dermis: neovascularization (grade) [3],Dermis: oedema (grade) [3],Epidermis: orthokeratotic hyperkeratosis (grade) [3],Epidermis: spongiosis (grade) [3],Epidermis: ulcer (grade) [3],other results
"C[C@@H]1[C@H](O)[C@@H](C)/C=C/C=C/C=C/C=C/C=C/C=C/C=C/[C@H](O[C@@H]2O[C@H](C)[C@@H](O)[C@H](N)[C@@H]2O)C[C@@H]2O[C@](O)(C[C@@H](O)C[C@@H](O)[C@H](O)CC[C@@H](O)C[C@@H](O)CC(=O)O[C@H]1C)C[C@H](O)[C@H]2C(=O)O [AMB, Amphotericin B, reference compound]",172.7,0.32 ± 0.01 µM,High (high activity corresponds to EC50 values < 50 µM),56.1 ± 5.8 µM,–,–,–,–,–,–,–,–,–,–
"COc1cc(/C=C/C(=O)CC(=O)/C=C/c2ccc(O)c(OC)c2)ccc1O [Curcumin, curcumin]",> 17.4,30.9 ± 0.3 µM,High (high activity corresponds to EC50 values < 50 µM),> 543 µM,83%,2,0,2,4,1,2,1,0,"number of hamsters cured (L. braziliensis; topical 1.5 mg/day for 15 days, n = 6): 5 hamsters; treatment failures (L. braziliensis; topical daily for 15 days, n = 6): one hamster failed treatment; SI (Selectivity Index = LC50/EC50) ([1]; listed as CUR): exceeds 10; EC50 ([1]; U-937, read-out: in vitro antileishmanial activity (EC50 in mass units)): 11.4 ± 0.1 µg/mL"
"COc1cccc2c1C(=O)c1c(O)c3c(c(O)c1C2=O)C[C@@](O)(C(=O)CO)C[C@@H]3O[C@H]1C[C@H](N)[C@H](O)[C@H](C)O1 [DOXO, Doxorubicin, reference compound]",–,–,–,1.47 ± 0.06 µM,–,–,–,–,–,–,–,–,–,–
"O=C(/C=C/C=C/c1ccc2c(c1)OCO2)N1CCCCC1 [Piperine, piperine]",> 80,8.76 ± 1.4 µM,High (high activity corresponds to EC50 values < 50 µM),> 701 µM,67%,2,0,2,2,1,2,2,0,"EC50 [4]: 28 µM; toxicity towards macrophages (macrophages): non-toxicity; EC50 ([1]; U-937, amastigote stage of L. braziliensis, read-out: in vitro antileishmanial activity (EC50 in mass units)): 2.5 ± 0.4 µg/mL; EC50 ([1]; U-937, read-out: effective concentration (in vitro leishmanicidal activity)): 8 µM; Cytotoxicity (U-937 cells): Low (low cytotoxicity for LC50 values > 200 µM)"
Castor oil,–,–,–,–,–,–,–,–,–,–,–,–,–,"resolution of CL lesions (L. braziliensis; hamster, in vivo): has not shown resolution of the lesions"
meglumine antimoniate [reference compound],–,–,–,–,–,–,–,–,–,–,–,–,–,number of hamsters cured (L. braziliensis; [7]): 4 hamsters; therapeutic response (hamsters cured) (L. braziliensis; [7]): 67%; increase of lesion in uncured hamster (L. braziliensis; [8]): 80%; reduction in the lesion size in uncured hamster (L. braziliensis; [8]): 14%
